Each structure is given as a SMILES string. Bounds are passed on as bounds.

One assay deals with STAT3 (Homo sapiens, UniProt P40763). In words: Quantitation of STAT3 degradation in A549 cells by Western blot. Type of assay: cell-based. The arrangement: expressed in transfected cells; host or cells: A549. The note with it: 24 hours, tested up to 30 μM or 10 μM, read-out: A549 DC50. In short, it runs like this: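 A549 cells treated 24 h at 37° C with compound at 30, 10, 3, 1, 0.3 μM or DMSO; RIPA lysates analysed by SDS-PAGE/Western blot for total STAT3, β-actin as loading control, LI-COR fluorescence read-out. DC50 derived by sigmoidal fit of dose-dependent degradation.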
Chain of STAT3 (P40763 whole entry): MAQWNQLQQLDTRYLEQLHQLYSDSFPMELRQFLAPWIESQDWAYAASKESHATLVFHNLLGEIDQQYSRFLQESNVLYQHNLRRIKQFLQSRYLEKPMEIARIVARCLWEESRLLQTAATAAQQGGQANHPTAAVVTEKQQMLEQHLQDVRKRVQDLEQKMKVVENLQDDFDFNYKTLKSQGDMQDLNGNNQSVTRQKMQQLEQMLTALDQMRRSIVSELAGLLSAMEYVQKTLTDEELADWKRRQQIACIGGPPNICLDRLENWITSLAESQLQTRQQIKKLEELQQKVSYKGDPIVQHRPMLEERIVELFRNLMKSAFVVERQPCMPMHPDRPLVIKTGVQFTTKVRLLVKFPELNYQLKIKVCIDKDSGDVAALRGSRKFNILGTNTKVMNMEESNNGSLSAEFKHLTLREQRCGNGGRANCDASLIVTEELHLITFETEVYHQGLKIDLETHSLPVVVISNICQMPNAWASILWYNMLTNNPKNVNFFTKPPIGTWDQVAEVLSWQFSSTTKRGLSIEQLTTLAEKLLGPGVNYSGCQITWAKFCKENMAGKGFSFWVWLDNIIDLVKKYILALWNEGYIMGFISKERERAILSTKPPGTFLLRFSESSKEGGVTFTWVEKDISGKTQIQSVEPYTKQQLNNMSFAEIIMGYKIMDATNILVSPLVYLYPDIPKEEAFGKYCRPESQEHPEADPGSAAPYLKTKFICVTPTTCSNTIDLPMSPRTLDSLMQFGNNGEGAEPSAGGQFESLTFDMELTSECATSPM
On the technique in general: Immunoblotting shows a protein as a band on a membrane.
In the case of `C/C(=C\C(=O)N[C@H]1CCc2cccc3c2N(C1=O)[C@H](C(=O)N[C@@H](CCC(N)=O)[C@@H](C)OCc1ccc(CCCCC(=O)N[C@H](C(=O)N2C[C@H](O)C[C@H]2C(=O)NCc2ccc(-c4scnc4C)cc2)C(C)(C)C)cc1)C3)c1ccc(CP(=O)(O)O)cc1` [Compound I-80, diammonium [4-[(1E)-1-[[(2S,11S)-2-[[(3S,4R)-1-carbamoyl-4-[[4-(4-[[(2S)-1-[(2S,4R)-4-hydroxy-2-([[4-(4-methyl-1,3-thiazol-5-yl)phenyl]methyl]carbamoyl)pyrrolidin-1-yl]-3,3-dimethyl-1-oxobutan-2-yl]carbamoyl]butyl)phenyl]methoxy]pentan-3-yl]carbamoyl]-12-oxo-1-azatricyclo[6.4.1.0^[4,13]]trideca-4(13),5,7-trien-11-yl]carbamoyl]prop-1-en-2-yl]phenyl]methylphosphonate], the half-maximal degradation concentration (DC50) was over 30 µM.

The same assay, now with this note: read-out: A549 DC50, 24 hours, tested up to 30 μM or 10 μM.
With `C/C(=C\C(=O)N[C@H]1CCc2cccc3c2N(C1=O)[C@H](C(=O)N[C@@H](CCC(N)=O)[C@@H](C)OCc1ccc(CC(=O)N[C@H](C(=O)N2C[C@H](O)C[C@H]2C(=O)NCc2ccc(-c4scnc4C)cc2)C(C)(C)C)cc1)C3)c1ccc(C(F)(F)P(=O)(OCOC(=O)C(C)(C)C)OCOC(=O)C(C)(C)C)cc1` [Compound I-4], the half-maximal degradation concentration (DC50) is over 30 µM.
Same read-out and setting: as for `C/C(=C\C(=O)N[C@H]1CCc2cccc3c2N(C1=O)[C@H](C(=O)NC(CCC(N)=O)[C@@H](C)OCc1ccc(CCCCOCC(=O)N[C@H](C(=O)N2C[C@H](O)C[C@H]2C(=O)NCc2ccc(-c4scnc4C)cc2)C(C)(C)C)cc1)C3)c1ccc(C(F)(F)P(=O)(OCOC(=O)C(C)(C)C)OCOC(=O)C(C)(C)C)cc1` (stereo partly shown) [Compound I-34], the figure is under 30 µM; as for `Cc1ncsc1-c1ccc(CNC(=O)[C@@H]2C[C@@H](O)CN2C(=O)[C@@H](NC(=O)CCCCCCc2ccc(CO[C@H](C)[C@H](CCC(N)=O)NC(=O)[C@@H]3Cc4cccc5c4N3C(=O)[C@@H](NC(=O)c3cc4cc(C(=O)P(=O)(O)O)ccc4[nH]3)CC5)cc2)C(C)(C)C)cc1` [Compound I-100], under 30 µM.
As for `C/C(=C\C(=O)N[C@H]1CCc2cccc3c2N(C1=O)[C@H](C(=O)N[C@@H](CCC(N)=O)[C@@H](C)OCc1ccc(CCCCc2cccc4c2n(C)c(=O)n4C2CCC(=O)NC2=O)cc1)C3)c1ccc(C(F)(F)P(=O)(OCOC(=O)C(C)(C)C)OCOC(=O)C(C)(C)C)cc1` (stereo partly shown) [Compound I-3], the DC50 is over 30 µM.
On to `Cc1ncsc1-c1ccc(C2(NC(=O)[C@@H]3C[C@@H](O)CN3C(=O)[C@@H](NC(=O)CCCCc3ccc(CO[C@H](C)[C@H](CCC(N)=O)NC(=O)[C@@H]4Cc5cccc6c5N4C(=O)[C@@H](NC(=O)c4cc5cc(C(=O)P(=O)(O)O)ccc5[nH]4)CC6)cc3)C(C)(C)C)CC2)cc1` [Compound I-90, 2-[[(2S,11S)-2-[[(3S,4R)-1-carbamoyl-4-[[4-(4-[[(2S)-1-[(2S,4R)-4-hydroxy-2-([1-[4-(4-methyl-1,3-thiazol-5-yl)phenyl]cyclopropyl]carbamoyl)pyrrolidin-1-yl]-3,3-dimethyl-1-oxobutan-2-yl]carbamoyl]butyl)phenyl]methoxy]pentan-3-yl]carbamoyl]-12-oxo-1-azatricyclo[6.4.1.0^[4,13]]trideca-4(13),5,7-trien-11-yl]carbamoyl]-1H-indole-5-carbonylphosphonic acid], for which the half-maximal degradation concentration (DC50) was under 30 µM.
Same read-out and setting: with `C/C(=C\C(=O)N[C@H]1CCc2cccc3c2N(C1=O)[C@H](C(=O)N[C@@H](CCC(N)=O)[C@@H](C)OCc1ccc(CCCOCCOCCCc2ccc4c(c2)n(C)c(=O)n4C2CCC(=O)NC2=O)cc1)C3)c1ccc(C(F)(F)P(=O)(OCOC(=O)C(C)(C)C)OCOC(=O)C(C)(C)C)cc1` (stereo partly shown) [Compound I-54] the figure was over 30 µM; with `Cc1ncsc1-c1ccc(CNC(=O)[C@@H]2C[C@@H](O)CN2C(=O)[C@@H](NC(=O)CCCCc2cccc(CO[C@H](C)[C@H](CCC(N)=O)NC(=O)[C@@H]3Cc4cccc5c4N3C(=O)[C@@H](NC(=O)c3cc4cc(C(=O)P(=O)(O)O)ccc4[nH]3)CC5)c2)C(C)(C)C)cc1` [Compound I-95, diammonium 2-[[(2S,11S)-2-[[(3S,4R)-1-carbamoyl-4-[[3-(4-[[(2S)-1-[(2S,4R)-4-hydroxy-2-([[4-(4-methyl-1,3-thiazol-5-yl)phenyl]methyl]carbamoyl)pyrrolidin-1-yl]-3,3-dimethyl-1-oxobutan-2-yl]carbamoyl]butyl)phenyl]methoxy]pentan-3-yl]carbamoyl]-12-oxo-1-azatricyclo[6.4.1.0^[4,13]]trideca-4(13),5,7-trien-11-yl]carbamoyl]-1H-indole-5-carbonylphosphonate], under 30 µM; with `Cn1c(=O)n(C2CCC(=O)NC2=O)c2ccc(CCCCCCCC(=O)N3CC[C@H]4CC[C@@H](C(=O)N[C@@H](CCC(N)=O)C(=O)NC(c5ccccc5)c5ccccc5)N4C(=O)[C@@H](NC(=O)c4cc5cc(C(=O)P(=O)(O)O)ccc5[nH]4)C3)cc21` (stereo partly drawn) [Compound I-97, 2-[[(5S,8S,10aR)-8-[[(1S)-3-carbamoyl-1-(diphenylmethylcarbamoyl)propyl]carbamoyl]-3-[8-[1-(2,6-dioxopiperidin-3-yl)-3-methyl-2-oxo-1,3-benzodiazol-5-yl]octanoyl]-6-oxo-octahydropyrrolo[1,2-a][1,5]diazocin-5-yl]carbamoyl]-1H-indole-5-carbonylphosphonic acid], under 30 µM.
On the same count and under the same terms, with `C/C(=C\C(=O)N[C@H]1CCc2cccc3c2N(C1=O)[C@H](C(=O)N[C@@H](CCC(N)=O)[C@@H](C)OCc1ccc(CCOCCOCC(=O)N[C@H](C(=O)N2C[C@H](O)C[C@H]2C(=O)NCc2ccc(-c4scnc4C)cc2)C(C)(C)C)cc1)C3)c1ccc(C(F)(F)P(=O)(OCOC(=O)C(C)(C)C)OCOC(=O)C(C)(C)C)cc1` [Compound I-31] the figure was over 30 µM; with `C/C(=C\C(=O)N[C@H]1CCc2cccc3c2N(C1=O)[C@H](C(=O)N[C@@H](CCC(N)=O)[C@@H](C)OCc1ccc(CCCOCCCCCc2cccc4c2n(C)c(=O)n4C2CCC(=O)NC2=O)cc1)C3)c1ccc(C(F)(F)P(=O)(OCOC(=O)C(C)(C)C)OCOC(=O)C(C)(C)C)cc1` (stereo partly shown) [Compound I-29], over 10 µM.
For the compound `C/C(=C\C(=O)N[C@H]1CCc2cccc3c2N(C1=O)[C@H](C(=O)N[C@@H](CCC(N)=O)[C@@H](C)OCc1ccc(CCCOCCOCCOCCOc2cc(-c4scnc4C)ccc2CNC(=O)[C@@H]2C[C@@H](O)CN2C(=O)[C@@H](NC(=O)C2(F)CC2)C(C)(C)C)cc1)C3)c1ccc(C(F)(F)P(=O)(OCOC(=O)C(C)(C)C)OCOC(=O)C(C)(C)C)cc1` [Compound I-17], the DC50 was over 30 µM.
Same read-out and setting: as for `C/C(=C\C(=O)N[C@H]1CCc2cccc3c2N(C1=O)[C@H](C(=O)N[C@@H](CCC(N)=O)[C@@H](C)OCc1ccc(CCCCCc2cccc4c2n(C)c(=O)n4C2CCC(=O)NC2=O)cc1)C3)c1ccc(C(F)(F)P(=O)(OCOC(=O)C(C)(C)C)OCOC(=O)C(C)(C)C)cc1` (stereo partly drawn) [Compound I-6, [([4-[(1E)-1-[[(2S,11S)-2-[[(3S,4R)-1-carbamoyl-4-[(4-[5-[1-(2,6-dioxopiperidin-3-yl)-3-methyl-2-oxo-1,3-benzodiazol-4-yl]pentyl]phenyl)methoxy]pentan-3-yl]carbamoyl]-12-oxo-1-azatricyclo[6.4.1.0^[4,13]]trideca-4(13),5,7-trien-11-yl]carbamoyl]prop-1-en-2-yl]phenyl]difluoromethyl([(2,2-dimethylpropanoyl)oxy]methoxy)phosphoryl)oxy]methyl 2,2-dimethylpropanoate], the figure is over 30 µM.

In general, DC50 refers to the midpoint of the concentration-degradation curve.
